The record followed here is ChEMBL document CHEMBL1201862, “PubChem BioAssay data set” (2004).

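Grown in 96-well plates, cells were treated for 48 hours with each compound at five concentrations. Insufficient inhibition: endpoint recorded as highest concentration tested. GI50 marks 50% less growth.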 Active and inactive are the calls of the source. Rule as the data show it: active = GI50 up to about 1.1 µM and inactive = higher.

Among the test systems are SW-620; SK-OV-3; OVCAR-4; OVCAR-3; HL-60; SNB-19; COLO 205; SK-MEL-28; SK-MEL-2; EKVX; OVCAR-5; HOP-92; U-251; LOX IMVI; SK-MEL-5; HT-29; OVCAR-8; RXF 393; SF-295; SNB-75.
Common to all, as to assay: NCI tumour cell line growth inhibition, 48 h

For `Cc1ccc(C2=C(C#N)C(N)OC3=C2COc2ccccc23)cc1` (stereo unspecified), the GI50 in the assay with SW-620 was > 100 µM (inactive); in the assay on SK-OV-3, 25.9 µM (inactive); in the assay on OVCAR-4, 13.5 µM (inactive); in the assay on OVCAR-3 it was 17 µM (inactive); with HL-60, > 100 µM (inactive); with SNB-19, 19 µM (inactive). In addition, the GI50 in the assay on COLO 205 was > 100 µM (inactive); in the assay on SK-MEL-28 it was 31.6 µM (inactive); in the assay on SK-MEL-2, 26.6 µM (inactive); in the assay with EKVX, 7.19 µM (inactive); with OVCAR-5, 2.4 µM (inactive); with HOP-92 it was 31.8 µM (inactive). Besides, the GI50 was 19.5 µM (inactive) in the assay with U-251, 88.3 µM (inactive) with LOX IMVI, 63 µM (inactive) in the assay with SK-MEL-5 and 4.85 µM (inactive) in the assay with HT-29.
`O=C(N/C=C1\C(=O)Oc2ccccc2C1=O)NC1CCCCC1`: the GI50 in the assay on SW-620 was 98.4 µM (inactive); in the assay with OVCAR-4 it was 77.8 µM (inactive); in the assay on HL-60, 40 µM (inactive); in the assay on SNB-19, 42.7 µM (inactive); in the assay with COLO 205 it was > 100 µM (inactive); in the assay with SK-MEL-28, 46.7 µM (inactive). Further, the GI50 in the assay with SK-MEL-2 is 24.2 µM (inactive); in the assay with EKVX, > 100 µM (inactive); in the assay with OVCAR-8, > 100 µM (inactive); in the assay on OVCAR-5 it was > 100 µM (inactive); with RXF 393, 19.9 µM (inactive); with HOP-92, 18.5 µM (inactive). In addition, the figures for the GI50 in the assay with LOX IMVI, with SK-MEL-5 and in the assay on HT-29 were 85.3 µM (inactive), > 100 µM (inactive) and > 100 µM (inactive), respectively.
Consider `O=Cc1c(Cn2ccnc2)c2cc([N+](=O)[O-])ccc2n1Cc1ccccc1`, for which the GI50 with SF-295 is 36.8 µM (inactive); in the assay on SW-620, > 100 µM (inactive); in the assay with SK-OV-3, > 100 µM (inactive); in the assay with OVCAR-4 it was > 100 µM (inactive); with OVCAR-3 it was > 100 µM (inactive); with SNB-19, 49.3 µM (inactive). Further, the GI50 with COLO 205 was > 100 µM (inactive); with SK-MEL-28, > 100 µM (inactive); with SK-MEL-2, > 100 µM (inactive); with EKVX, > 100 µM (inactive); in the assay with OVCAR-8 it was > 81.3 µM (inactive); with OVCAR-5, > 90.6 µM (inactive). For the same compound, the GI50 was > 100 µM (inactive) in the assay on RXF 393; > 100 µM (inactive) with HOP-92; 37.3 µM (inactive) in the assay on U-251; > 100 µM (inactive) in the assay on LOX IMVI; > 100 µM (inactive) in the assay on SNB-75; 99.1 µM (inactive) in the assay on SK-MEL-5. Also, the GI50 in the assay with HT-29 was > 100 µM (inactive).
Regarding `CCOC(=O)[C@H]1Nc2ccc(Cl)cc2[C@H]2c3ccccc3O[C@H]21`, the GI50 in the assay with SF-295 is 72.1 µM (inactive); in the assay with SW-620 it was > 100 µM (inactive); in the assay on OVCAR-4, 54.1 µM (inactive); with OVCAR-3, 80.4 µM (inactive); in the assay on SNB-19, > 100 µM (inactive); in the assay on COLO 205 it was > 100 µM (inactive). Moreover, the GI50 is 35.2 µM (inactive) with SK-MEL-28; > 100 µM (inactive) in the assay on SK-MEL-2; > 100 µM (inactive) with EKVX; > 100 µM (inactive) in the assay with OVCAR-8; > 100 µM (inactive) with OVCAR-5; > 100 µM (inactive) in the assay with RXF 393. Besides, the GI50 with U-251 was > 100 µM (inactive); in the assay with LOX IMVI, > 100 µM (inactive); with SNB-75 it was 47.4 µM (inactive); with SK-MEL-5, 64.7 µM (inactive); in the assay with HT-29, 99.3 µM (inactive).
Take `COc1cc(C2S/C(=C/c3ccccc3)C(=O)N2c2cccc(NC(C)=O)c2)cc(OC)c1OC` (stereo unspecified): the GI50 is 40.5 µM (inactive) with SF-295; 56 µM (inactive) in the assay with SK-OV-3; 24.4 µM (inactive) in the assay with OVCAR-4; 58.7 µM (inactive) in the assay on SNB-19; 27.3 µM (inactive) in the assay with COLO 205; 90.2 µM (inactive) in the assay with SK-MEL-28. The GI50 in the assay on EKVX is 19.3 µM (inactive); with OVCAR-8, 29.9 µM (inactive); with OVCAR-5, 65.8 µM (inactive); with RXF 393, 28.8 µM (inactive); with HOP-92, 16.4 µM (inactive); in the assay with U-251, 17.6 µM (inactive). Besides, the GI50 is 21.5 µM (inactive) in the assay on LOX IMVI, 4.02 µM (inactive) in the assay on SNB-75, 35.2 µM (inactive) in the assay with SK-MEL-5 and 21.1 µM (inactive) with HT-29.
As to `c1ccc2c(c1)N=C(NC1CCCCC1)CCN2`, the GI50 with SF-295, in the assay on SW-620, with SK-OV-3, in the assay on OVCAR-4, in the assay on OVCAR-3 and in the assay with HL-60 was > 100 µM (inactive) throughout. Besides, the GI50 with SNB-19, in the assay on COLO 205, in the assay with SK-MEL-28, in the assay on SK-MEL-2, in the assay on EKVX and in the assay on OVCAR-8 was > 100 µM (inactive) throughout. The GI50 was > 100 µM (inactive) with OVCAR-5; > 100 µM (inactive) in the assay on RXF 393; > 100 µM (inactive) in the assay with U-251; 22 µM (inactive) in the assay on SNB-75; > 100 µM (inactive) in the assay with SK-MEL-5; 77.6 µM (inactive) with HT-29.
Regarding `CN1C[C@H]2[C@@H](C1=O)[C@H](c1ccc([N+](=O)[O-])cc1)ON2C`, the GI50 with SF-295, in the assay on SW-620, with SK-OV-3, in the assay on OVCAR-4, in the assay with OVCAR-3 and in the assay on HL-60 was > 100 µM (inactive) each time. Besides, the GI50 in the assay with SNB-19, with COLO 205, in the assay on SK-MEL-28, with SK-MEL-2, in the assay on OVCAR-8 and with OVCAR-5 was > 100 µM (inactive) in each case. The GI50 in the assay on HOP-92, in the assay with U-251, in the assay on LOX IMVI, in the assay on SK-MEL-5 and with HT-29 was > 100 µM (inactive) in each case.
For the compound `O=S(=O)(c1ccccc1)C1CC(c2nc3ccccc3[nH]2)=NO1` (stereo unspecified), the GI50 is > 100 µM (inactive) with SF-295; 43.8 µM (inactive) in the assay with SW-620; > 100 µM (inactive) in the assay on SK-OV-3; > 100 µM (inactive) in the assay on OVCAR-4; 89.9 µM (inactive) in the assay with OVCAR-3; > 100 µM (inactive) with SNB-19. Also, the GI50 with COLO 205 was 37.3 µM (inactive); in the assay with SK-MEL-28, > 100 µM (inactive); with SK-MEL-2, > 100 µM (inactive); in the assay on EKVX, 84.9 µM (inactive); in the assay on OVCAR-8, > 100 µM (inactive); in the assay with OVCAR-5 it was > 100 µM (inactive). The GI50 was 83 µM (inactive) in the assay with RXF 393; 80.4 µM (inactive) in the assay with HOP-92; > 100 µM (inactive) with U-251; > 100 µM (inactive) in the assay on LOX IMVI; > 100 µM (inactive) in the assay with SNB-75; 70.3 µM (inactive) in the assay with SK-MEL-5. For the same compound, the GI50 in the assay on HT-29 is > 100 µM (inactive).
With `COc1cc(O)c2c(c1)C(=O)c1cc3c(c(O)c1C2=O)C(OC1OC(C)C(O)C(O)C1OC)C(OC)C(C)(O)C3=O` (stereo unspecified), the GI50 in the assay with SF-295 was 1.82 µM (inactive); with SW-620, 1.08 µM (active); in the assay on SK-OV-3, 3.2 µM (inactive); with OVCAR-4, 0.476 µM (active); in the assay on OVCAR-3, 0.439 µM (active); with SNB-19 it was 2.94 µM (inactive). For the same compound, the GI50 in the assay with COLO 205 is 0.76 µM (active); in the assay on SK-MEL-2, 3.65 µM (inactive); with EKVX, 2.43 µM (inactive); in the assay with OVCAR-5 it was 4.43 µM (inactive); with RXF 393, 1.22 µM (inactive); in the assay with HOP-92 it was 0.436 µM (active). Moreover, the GI50 in the assay on U-251 is 3.39 µM (inactive); with LOX IMVI, 2 µM (inactive); with SNB-75, 3.57 µM (inactive); in the assay on SK-MEL-5, 0.865 µM (active); in the assay on HT-29 it was 1.17 µM (inactive).
For the compound `C=CC1OC(CCCOC(=O)C(C)(C)C)O[C@@H]1CC` (stereo partly specified), the GI50 in the assay on SF-295 was > 100 µM (inactive); in the assay with SW-620 it was > 100 µM (inactive); with SK-OV-3 it was > 100 µM (inactive); in the assay with OVCAR-4, > 100 µM (inactive); in the assay with OVCAR-3 it was > 100 µM (inactive); in the assay with HL-60, 7.38 µM (inactive). Moreover, the GI50 in the assay on SNB-19, with COLO 205, with SK-MEL-28, in the assay on SK-MEL-2, in the assay on EKVX and with OVCAR-8 was > 100 µM (inactive) in each case. The GI50 in the assay with OVCAR-5, in the assay on HOP-92, with U-251, in the assay with SNB-75, in the assay with SK-MEL-5 and with HT-29 was > 100 µM (inactive) throughout.
`O=C(NC(Cc1ccc(I)cc1)C(=O)O)c1ccc(Cl)cc1` (stereo unspecified): the GI50 with SF-295 is > 100 µM (inactive); in the assay with SW-620, > 100 µM (inactive); in the assay on SK-OV-3 it was > 100 µM (inactive); in the assay with OVCAR-4, > 66.8 µM (inactive); in the assay with OVCAR-3, > 88.5 µM (inactive); in the assay with HL-60, > 100 µM (inactive). In addition, the GI50 in the assay with SNB-19 was > 100 µM (inactive); in the assay on COLO 205, > 100 µM (inactive); with SK-MEL-28 it was > 100 µM (inactive); with SK-MEL-2 it was > 100 µM (inactive); with EKVX it was > 67.8 µM (inactive); with OVCAR-8 it was > 100 µM (inactive). Besides, the GI50 is > 100 µM (inactive) in the assay on OVCAR-5; 67.8 µM (inactive) in the assay with HOP-92; > 100 µM (inactive) in the assay with U-251; > 100 µM (inactive) in the assay on LOX IMVI; 87.3 µM (inactive) with SNB-75; > 100 µM (inactive) in the assay with SK-MEL-5. Also, the GI50 in the assay on HT-29 was > 100 µM (inactive).
